In PubChem BioAssay (NCI):
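Briefly, cells in 96-well plates were exposed to five compound concentrations for 48 h, and endpoints were estimated by linear interpolation. GI50 marks 50% less growth. TGI is the concentration that stops growth completely.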

What was measured:
Assay in all cases: NCI anticancer screen, dose series, 48 h; in the data active = GI50 below about 0.43 µM; inactive = the rest
MCF7 breast = system: MCF7 breast
UACC-257 melanoma = system: UACC-257 melanoma
HT29 colon = system: HT29 colon
OVCAR-8 ovarian = system: OVCAR-8 ovarian
786-0 renal = system: 786-0 renal
OVCAR-5 ovarian = system: OVCAR-5 ovarian
SN12C renal = system: SN12C renal
IGROV1 ovarian = system: IGROV1 ovarian
NCI-H226 lung = system: NCI-H226 lung
SR leukemia = system: SR leukemia
U251 CNS = system: U251 CNS
HOP-62 NSCLC = system: HOP-62 NSCLC
CAKI-1 renal = system: CAKI-1 renal
A498 renal = system: A498 renal
DU-145 prostate = system: DU-145 prostate
SF-295 CNS = system: SF-295 CNS
SNB-75 CNS = system: SNB-75 CNS
K-562 leukemia = system: K-562 leukemia
RXF 393 renal = system: RXF 393 renal
UACC-62 melanoma = system: UACC-62 melanoma
SK-MEL-28 melanoma = system: SK-MEL-28 melanoma
M14 melanoma = system: M14 melanoma
PC-3 prostate = system: PC-3 prostate
SK-OV-3 ovarian = system: SK-OV-3 ovarian
SW-620 colon = system: SW-620 colon
OVCAR-4 ovarian = system: OVCAR-4 ovarian
NCI/ADR-RES ovarian = system: NCI/ADR-RES ovarian
NCI-H522 lung = system: NCI-H522 lung
HCT-116 colon = system: HCT-116 colon
SK-MEL-2 melanoma = system: SK-MEL-2 melanoma
HCT-15 colon = system: HCT-15 colon
ACHN renal = system: ACHN renal
HCC-2998 colon = system: HCC-2998 colon
SK-MEL-5 melanoma = system: SK-MEL-5 melanoma
COLO 205 colon = system: COLO 205 colon
EKVX NSCLC = system: EKVX NSCLC
KM12 colon = system: KM12 colon
SF-539 CNS = system: SF-539 CNS
LOX IMVI melanoma = system: LOX IMVI melanoma
CCRF-CEM leukemia = system: CCRF-CEM leukemia
SNB-19 CNS = system: SNB-19 CNS
HL-60(TB) leukemia = system: HL-60(TB) leukemia
SF-268 CNS = system: SF-268 CNS
HS 578T breast = system: HS 578T breast
BT-549 breast = system: BT-549 breast
NCI-H23 lung = system: NCI-H23 lung
TK-10 renal = system: TK-10 renal
MDA-MB-231 breast = system: MDA-MB-231 breast
T-47D breast = system: T-47D breast
MALME-3M melanoma = system: MALME-3M melanoma
RPMI-8226 leukemia = system: RPMI-8226 leukemia
NCI-H460 lung = system: NCI-H460 lung
MOLT-4 leukemia = system: MOLT-4 leukemia
A549 NSCLC = system: A549 NSCLC
UO-31 renal = system: UO-31 renal
MDA-MB-435 = system: MDA-MB-435
HOP-92 NSCLC = system: HOP-92 NSCLC
OVCAR-3 ovarian = system: OVCAR-3 ovarian

O=[N+]([O-])c1ccc(-c2nnc(SCc3ccc(O)c4ncccc34)o2)cc1
> 53000 nM: TGI (UO-31 renal)
> 30400 nM: TGI (A498 renal)
> 62700 nM: TGI (NCI-H460 lung)
inactive: GI50 (UACC-257 melanoma) 511 nM | GI50 (HT29 colon) 4840 nM | GI50 (786-0 renal) 674 nM | GI50 (OVCAR-5 ovarian) 3710 nM | GI50 (IGROV1 ovarian) 649 nM | GI50 (NCI-H226 lung) 3520 nM | GI50 (HOP-62 NSCLC) 590 nM | GI50 (CAKI-1 renal) 561 nM | GI50 (A498 renal) 2520 nM | GI50 (DU-145 prostate) 467 nM | GI50 (RXF 393 renal) 732 nM | GI50 (UACC-62 melanoma) 810 nM | GI50 (SK-MEL-28 melanoma) 1120 nM | GI50 (M14 melanoma) 455 nM | GI50 (SW-620 colon) 547 nM | GI50 (OVCAR-4 ovarian) 1010 nM | GI50 (NCI/ADR-RES ovarian) 551 nM | GI50 (HCC-2998 colon) 749 nM | GI50 (COLO 205 colon) 4110 nM | GI50 (EKVX NSCLC) 746 nM | GI50 (KM12 colon) 572 nM | GI50 (SF-539 CNS) 877 nM | GI50 (CCRF-CEM leukemia) 451 nM | GI50 (SF-268 CNS) 608 nM | GI50 (TK-10 renal) 785 nM | GI50 (MDA-MB-231 breast) 625 nM | GI50 (T-47D breast) 923 nM | GI50 (MALME-3M melanoma) 569 nM | GI50 (MOLT-4 leukemia) 508 nM
27500 nM: TGI (UACC-257 melanoma)
69000 nM: TGI (T-47D breast)
> 39000 nM: TGI (LOX IMVI melanoma)
3920 nM: TGI (SK-OV-3 ovarian)
active: GI50 (MCF7 breast) 224 nM | GI50 (OVCAR-8 ovarian) 310 nM | GI50 (SN12C renal) 326 nM | GI50 (SR leukemia) 424 nM | GI50 (U251 CNS) 181 nM | GI50 (SF-295 CNS) 315 nM | GI50 (SNB-75 CNS) 386 nM | GI50 (K-562 leukemia) 363 nM | GI50 (PC-3 prostate) 358 nM | GI50 (SK-OV-3 ovarian) 379 nM | GI50 (NCI-H522 lung) 381 nM | GI50 (HCT-116 colon) 189 nM | GI50 (SK-MEL-2 melanoma) 390 nM | GI50 (HCT-15 colon) 333 nM | GI50 (ACHN renal) 360 nM | GI50 (SK-MEL-5 melanoma) 357 nM | GI50 (LOX IMVI melanoma) 334 nM | GI50 (SNB-19 CNS) 351 nM | GI50 (HL-60(TB) leukemia) 425 nM | GI50 (HS 578T breast) 417 nM | GI50 (BT-549 breast) 237 nM | GI50 (NCI-H23 lung) 407 nM | GI50 (RPMI-8226 leukemia) 402 nM | GI50 (NCI-H460 lung) 260 nM | GI50 (A549 NSCLC) 378 nM | GI50 (UO-31 renal) 347 nM | GI50 (MDA-MB-435) 331 nM
7560 nM: TGI (M14 melanoma)
> 30600 nM: TGI (SK-MEL-5 melanoma)
> 84500 nM: TGI (COLO 205 colon)
> 100000 nM: TGI (MCF7 breast) | TGI (HT29 colon) | TGI (OVCAR-8 ovarian) | TGI (786-0 renal) | TGI (OVCAR-5 ovarian) | TGI (SN12C renal) | TGI (IGROV1 ovarian) | TGI (NCI-H226 lung) | TGI (SR leukemia) | TGI (U251 CNS) | TGI (HOP-62 NSCLC) | TGI (CAKI-1 renal) | TGI (DU-145 prostate) | TGI (SF-295 CNS) | TGI (SNB-75 CNS) | TGI (K-562 leukemia) | TGI (RXF 393 renal) | TGI (SK-MEL-28 melanoma) | TGI (PC-3 prostate) | TGI (SW-620 colon) | TGI (OVCAR-4 ovarian) | TGI (NCI/ADR-RES ovarian) | TGI (NCI-H522 lung) | TGI (HCT-116 colon) | TGI (HCT-15 colon) | TGI (ACHN renal) | TGI (HCC-2998 colon) | TGI (EKVX NSCLC) | TGI (KM12 colon) | TGI (SF-539 CNS) | TGI (CCRF-CEM leukemia) | TGI (SNB-19 CNS) | TGI (SF-268 CNS) | TGI (HS 578T breast) | TGI (BT-549 breast) | TGI (NCI-H23 lung) | TGI (TK-10 renal) | TGI (MDA-MB-231 breast) | TGI (MALME-3M melanoma) | TGI (RPMI-8226 leukemia) | TGI (MOLT-4 leukemia) | TGI (A549 NSCLC) | TGI (MDA-MB-435)
12600 nM: TGI (UACC-62 melanoma)

C=C(C)[C@@H]1CC[C@]2(COC)CC[C@]3(C)[C@H](CC[C@@H]4[C@@]5(C)CCCNC(C)(C)[C@@H]5CC[C@]43C)[C@@H]12
3520 nM: TGI (SK-MEL-2 melanoma) | TGI (TK-10 renal)
2920 nM: TGI (HCT-15 colon)
active: GI50 (MCF7 breast) 301 nM | GI50 (K-562 leukemia) 323 nM
2590 nM: TGI (HCT-116 colon)
3080 nM: TGI (ACHN renal)
3130 nM: TGI (SNB-19 CNS)
inactive: GI50 (UACC-257 melanoma) 1930 nM | GI50 (HT29 colon) 562 nM | GI50 (OVCAR-8 ovarian) 1910 nM | GI50 (786-0 renal) 1750 nM | GI50 (OVCAR-5 ovarian) 1660 nM | GI50 (SN12C renal) 1570 nM | GI50 (IGROV1 ovarian) 1560 nM | GI50 (NCI-H226 lung) 1930 nM | GI50 (SR leukemia) 481 nM | GI50 (U251 CNS) 1550 nM | GI50 (HOP-62 NSCLC) 1950 nM | GI50 (CAKI-1 renal) 1590 nM | GI50 (A498 renal) 1660 nM | GI50 (DU-145 prostate) 1770 nM | GI50 (SF-295 CNS) 1780 nM | GI50 (SNB-75 CNS) 1750 nM | GI50 (RXF 393 renal) 1550 nM | GI50 (UACC-62 melanoma) 1680 nM | GI50 (SK-MEL-28 melanoma) 1620 nM | GI50 (M14 melanoma) 1630 nM | GI50 (PC-3 prostate) 1260 nM | GI50 (SK-OV-3 ovarian) 1790 nM | GI50 (SW-620 colon) 1770 nM | GI50 (OVCAR-4 ovarian) 1540 nM | GI50 (NCI/ADR-RES ovarian) 1680 nM | GI50 (NCI-H522 lung) 1730 nM | GI50 (HCT-116 colon) 1130 nM | GI50 (SK-MEL-2 melanoma) 1840 nM | GI50 (HCT-15 colon) 1430 nM | GI50 (HOP-92 NSCLC) 1150 nM | GI50 (ACHN renal) 1690 nM | GI50 (HCC-2998 colon) 1260 nM | GI50 (SK-MEL-5 melanoma) 1590 nM | GI50 (COLO 205 colon) 1490 nM | GI50 (EKVX NSCLC) 1630 nM | GI50 (KM12 colon) 1820 nM | GI50 (SF-539 CNS) 1570 nM | GI50 (CCRF-CEM leukemia) 1240 nM | GI50 (SNB-19 CNS) 1710 nM | GI50 (HL-60(TB) leukemia) 1330 nM | GI50 (SF-268 CNS) 1950 nM | GI50 (HS 578T breast) 2530 nM | GI50 (BT-549 breast) 1750 nM | GI50 (TK-10 renal) 1910 nM | GI50 (MDA-MB-231 breast) 1800 nM | GI50 (T-47D breast) 1180 nM | GI50 (MALME-3M melanoma) 1420 nM | GI50 (OVCAR-3 ovarian) 1900 nM | GI50 (RPMI-8226 leukemia) 1170 nM | GI50 (NCI-H460 lung) 1640 nM | GI50 (MOLT-4 leukemia) 1250 nM | GI50 (A549 NSCLC) 1600 nM | GI50 (UO-31 renal) 1450 nM | GI50 (MDA-MB-435) 1610 nM
3210 nM: TGI (DU-145 prostate) | TGI (BT-549 breast)
2940 nM: TGI (RXF 393 renal)
3510 nM: TGI (HL-60(TB) leukemia)
3140 nM: TGI (EKVX NSCLC)
2240 nM: TGI (MCF7 breast)
2510 nM: TGI (SR leukemia)
3000 nM: TGI (OVCAR-4 ovarian) | TGI (SK-MEL-5 melanoma)
3070 nM: TGI (CAKI-1 renal) | TGI (MALME-3M melanoma)
3930 nM: TGI (NCI-H226 lung)
3480 nM: TGI (786-0 renal)
3850 nM: TGI (SF-268 CNS)
3240 nM: TGI (SF-295 CNS)
3380 nM: TGI (MDA-MB-231 breast)
3420 nM: TGI (NCI-H522 lung)
3430 nM: TGI (RPMI-8226 leukemia)
2520 nM: TGI (PC-3 prostate)
3500 nM: TGI (NCI-H460 lung)
3650 nM: TGI (KM12 colon)
3760 nM: TGI (UACC-257 melanoma)
2090 nM: TGI (HT29 colon)
3010 nM: TGI (IGROV1 ovarian)
1660 nM: TGI (K-562 leukemia)
3220 nM: TGI (COLO 205 colon)
2670 nM: TGI (HCC-2998 colon)
3320 nM: TGI (SK-OV-3 ovarian)
3490 nM: TGI (MOLT-4 leukemia)
3160 nM: TGI (A549 NSCLC)
3900 nM: TGI (HOP-62 NSCLC)
4000 nM: TGI (OVCAR-8 ovarian)
3110 nM: TGI (OVCAR-5 ovarian) | TGI (A498 renal) | TGI (UACC-62 melanoma)
2470 nM: TGI (HOP-92 NSCLC)
3340 nM: TGI (M14 melanoma)
3710 nM: TGI (SW-620 colon)
2780 nM: TGI (UO-31 renal)
3920 nM: TGI (SNB-75 CNS)
3090 nM: TGI (SN12C renal) | TGI (MDA-MB-435)
2990 nM: TGI (SK-MEL-28 melanoma) | TGI (CCRF-CEM leukemia) | TGI (T-47D breast)
5570 nM: TGI (HS 578T breast)
3400 nM: TGI (NCI/ADR-RES ovarian)
3020 nM: TGI (SF-539 CNS)
3730 nM: TGI (OVCAR-3 ovarian)
3180 nM: TGI (U251 CNS)
